Laboratory results reported in publication PMC12518639, “Apomorphine is a novel necroptosis inhibitor targeting mixed lineage kinase domain-like protein oligomerization” (Cell Death Discovery, 2025).

Tests used:
Nt-hMLKL (2–154) = molecular target: T1, Nt-hMLKL (2–154) (Homo sapiens, UniProt Q8NB16); experiment: SPR binding to Nt-hMLKL; details: for Kd: SPR, CM5 chip, 25 °C
T1 construct: Nt-hMLKL (2–154), Nt-mMLKL (1–180), and Ct-hMLKL (183–471) were generated using the pBT7-N-His vector; His (N); made in house; host or cells: E. coli BL21
T1 sequence (Q8NB16 2-154): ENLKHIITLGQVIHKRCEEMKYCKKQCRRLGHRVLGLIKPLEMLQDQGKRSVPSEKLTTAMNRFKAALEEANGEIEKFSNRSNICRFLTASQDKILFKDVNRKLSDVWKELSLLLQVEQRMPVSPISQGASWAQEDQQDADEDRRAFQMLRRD
From the text: The hMLKL plasmid (RC213152, OriGene, Rockville, MD, USA), and recombinant Wt-hMLKL (ab241453, Abcam) and Wt-mMLKL (MBS1379843, MyBioSource, San Diego, CA, USA) proteins were purchased. Nt-hMLKL (2–154), Nt-mMLKL (1–180), and Ct-hMLKL (183–471) were generated using the pBT7-N-His vector. Nt-hMLKL^C86A, Nt-hMLKL^F148A, -hMLKL^C86A/L89A/D94A, and Nt-hMLKL^R145A/R146A/F148A/M150A were generated using the Site-directed Mutagenesis Kit (EZ004S, Enzynomics, S. Korea). These constructs were subcloned into pBT7-N-His and pET-15b plasmid vectors. E. coli BL21 cells transformed with the cloned expression vectors were cultured in LB medium and supplemented with 100 μg/mL ampicillin until an OD at 600 nm of 0.5–0.6 was reached. The cultures were induced by 1 mM IPTG (367-93-1, Sigma-Aldrich). The cells were lysed and centrifuged. The clear supernatants were subjected to Ni-NTA affinity chromatography (175018169, QIAGEN, Hilden, Germany). Plasmids encoding mMLKL (1–464)–gyrase fusion constructs were kindly provided by Prof. James Murphy (Cell Signalling and Cell Death Division, The Walter and Eliza Hall Institute of Medical Research, Parkville, Victoria 3052, Australia).
The interactions of Wt-hMLKL, Wt-mMLKL, Nt-mMLKL, Nt, and Ct-hMLKL proteins with Re-APO or Ox-APO were detected through SPR analysis using Biacore™ T200 (Cytiva, Marlborough, MA, USA). Each MLKL protein was immobilized on a CM5 sensor chip. To derive the Rligand values, coupling processes were performed based on the molecular weights of the MLKL protein (MW ligand) and Re-APO or Ox-APO (MW analyte). Re-APO or Ox-APO was injected into an HBS buffer (10 mM HEPES, 150 mM NaCl, 3.4 mM EDTA, and 0.005% Tween 20, pH 7.4) at 25 °C (10 μL/min flow rate). Sensorgrams were recorded and analyzed in real-time using the control software in the BIAcore T200 system. All data were analyzed using the BIA evaluation software (Cytiva).

[1] = system: DSS-induced colitis in C57BL/6 mice; experiment: DSS-induced colitis model; assay type: in vivo, mouse
Method: For DSS-induced colitis, male C57BL/6 mice aged 6–8 weeks (Central Lab Animal Inc., S. Korea) were administered 2.5% DSS (36–50 kDa, 9011-18-1, MP Biomedicals, Solon, OH, USA) in their drinking water for 8 days. The 2.5% DSS-supplemented drinking water was prepared by dissolving 12.5 g of DSS powder in 500 mL of distilled water and was freshly prepared and replaced daily throughout the 8 days. Body weight and DAI score were recorded daily. The DAI score was calculated based on weight loss (no weight loss, 1–5%, 5–10%, 10–15%, and >15% weight loss, respectively, representing DAI scores of 0, 1, 2, 3, and 4), stool consistency/diarrhea (normal = 0, loose stools = 2, and watery diarrhea = 4), and bleeding (no bleeding = 0, slight bleeding = 2, gross bleeding = 4). At the end of the experiment, the mice were sacrificed, and tissue samples were collected.
Each mouse colon was removed, measured in length, cut open, fixed in Bouin’s fixative (50% ethanol/5% acetic acid in distilled water), and embedded in paraffin. Tissue sections were stained with H&E (Sigma-Aldrich). Histological evaluation of the colitis lesions along the entire colon was performed using the scoring system: degree of crypt structural damage (0–3), degree of inflammatory cell infiltration (0–3), and degree of submucosal edema (0–3). For PAS staining, deparaffinized and rehydrated tissue sections were treated with 0.5% periodic acid (10450-60-9, Junsei Chemical Co., Tokyo, Japan) and stained with Schiff’s reagent (3952016, Sigma-Aldrich). Sections were dehydrated in ethyl alcohol and coverslipped.

[2] = system: APAP-induced liver injury in BALB/c mice; experiment: APAP-induced liver injury model; assay type: in vivo, mouse; details: 15 mg/kg once, APAP i.p., 24 h; for Necrotic area of liver tissue (H&E): n=3
Method: For APAP-induced liver injury, male BALB/c mice aged 6–8 weeks (Central Lab Animal Inc., S. Korea) and male MLKL^–/– C57BL/6 mice aged 6–8 weeks (Cyagen, Santa Clara, CA, USA) were administered acetaminophen (APAP; 400–500 mg/kg, 103-90-2, Sigma-Aldrich) by i.p. injection to induce liver injury in the presence or absence of APO after 12 h of fasting. After 24 h, the mice were sacrificed to obtain liver tissues for further analysis.
For liver tissue preparation, each liver was perfused with DPBS and then fixed in 4% paraformaldehyde (PFA; PC2031-050-00, Biosesang, S. Korea) before embedding in paraffin. Sections were stained with H&E, and necrotic areas were quantified using ImageJ by calculating the proportion of pale or unstained regions relative to the total tissue area. Mouse liver sections were subjected to IHC staining to assess distinct forms of cell death: an anti-p-MLKL antibody (MA5-32752, Thermo Fisher Scientific) to evaluate p-MLKL localization (necroptosis), a TUNEL assay kit (4810-30-K, R&D Systems) for apoptosis, and an anti-4-HNE antibody (GTX01087, GeneTex) for ferroptosis.

MLKL = experiment: Confocal microscopy of MLKL membrane translocation; assay type: cell-based, human; details: THP-1, TBZ, 8 h
Method: THP-1 cells were washed and fixed in 4% paraformaldehyde and incubated in 0.25% Triton X-100 for 10 min, blocked for 30 min with 5% BSA-PBS, and stained with the MLKL and CD36 (ab252922, Abcam) antibody. The nuclei were stained with DAPI. Confocal microscopy (FV1000, Olympus, Tokyo, Japan) was used for image analysis. The signal intensity was measured using FluoView FV1000 software.

[3] = 15 mg/kg i.p. daily, 2.5% DSS 8 days

CN1CCc2cccc3c4c(cc1c23)C=CC(=O)C4=O [Ox-APO]
Kd (Nt-hMLKL (2–154)): 1.31 µM | fold difference of binding versus Re-APO (Nt-hMLKL (2–154); from KD values): ~1000 fold | average histologic score ([1]; 1.5 mg/kg i.p. daily, 2.5% DSS 8 days): 3.0 | average histologic score [1, 3]: 1.2 | DAI score and colon length ([1]; i.p. daily, 2.5% DSS 8 days): more effective than Re-APO | Serum ALT and AST levels [2]: significantly improved | membrane p-MLKL in liver (IHC) [2]: dramatic decrease | Necrotic area of liver tissue (H&E) [2]: 1% | inhibition of migration of p-MLKL to the cell membrane (MLKL; same concentration): more effective than Re-APO

CN1CCc2cccc3c2C1Cc1ccc(O)c(O)c1-3 (centres unmarked) [Re-APO]
Kd (Nt-hMLKL (2–154)): 1140 µM | average histologic score [1, 3]: 2.6 | alleviation of DSS-induced colitis symptoms relative to Ox-APO ([1]; at the same concentration): about ten times weaker than Ox-APO | Serum ALT and AST levels [2]: significantly improved | membrane p-MLKL in liver (IHC) [2]: dramatic decrease | Necrotic area of liver tissue (H&E) [2]: 3%

CN1CCc2cccc3c2[C@@H]1Cc1ccc(O)c(O)c1-3 [S62, (6aS)-6-methyl-5,6,6a,7-tetrahydro-4H-dibenzo[de,g]quinoline-10,11-diol]
colitis symptoms and pathological changes (H&E, PAS) ([1]; 0.15, 1.5 or 15 mg/kg i.p. daily, oxidative state not determined): significantly alleviated | level of MLKL in the cell membrane (MLKL): profoundly decreased
